Test system: phenyl-p-benzoquinone induced writhing in mice
Assay: mouse antiphenylquinone (phenyl-p-benzoquinone induced) writhing test, oral, 20 min
Protocol: Male CF1 mice obtained from Charles River Breeding Laboratories, fasted for 16-22 hours and weighing 18-22 g at the time of testing are used throughout. All mice are dosed sequentially by the oral route with solutions of flurbiprofen and/or of nalbuphine hydrochloride. A dosing volume of 10 ml/kg is used for each sequential solution or suspension. […] All doses are coded and the test is performed under a code not known to the observer.
A stock solution of flurbiprofen is prepared by dissolving dry flurbiprofen powder with an equimolar amount of one molar sodium hydroxide and sufficient water to produce the required solution concentration. The acidity is adjusted with dilute hydrochloric acid to pH 9.0. All dosing solutions are prepared by dilution of the stock solution with distilled water; the vehicle control is distilled water.
Stock solutions of nalbuphine HCl are prepared by dissolving dry nalbuphine hydrochloride powder with distilled water. All dosing solutions are prepared by dilution of the stock solution with distilled water; the vehicle control is distilled water.
As indicated above, the standard procedure based upon the prevention of phenyl-p-benzoquinone induced writhing in mice is utilized to detect and quantify the analgetic activity of compositions containing nalbuphine and flurbiprofen.
Mice, intubated with various doses of nalbuphine hydrochloride, flurbiprofen, combined doses of nalbuphine hydrochloride and flurbiprofen,or vehicle, are injected intraperitoneally with a challenge dose of phenyl-p-benzoquinone 5 minutes prior to the designated observation period. […] For scoring purposes a "writhe" is indicated by whole body stretching or contraction of the abdomen; mice are observed 10 minutes for the presence or absence of writhing beginning 5 minutes after receiving the phenyl-p-benzoquinone dose. Each mouse is used only once, then discarded. […] This dosage as described herein is referred to as the ED50.
In order to study the interaction between nalbuphine and flurbiprofen, 5 precise dosage ratios of nalbuphine hydrochloride and flurbiprofen are selected. Four or five coded doses of each selected combination are studied for analgesic effectivenss at 20 minutes using an experimental design which permits coding and complete randomization of the separate dosage forms tested. Althogether 35 separate dosage forms are used and each form is represented in each experimental session. The experiments are continued by running experimental sessions with an equal number of mice per group being tested until the total number, N, of mice tested per group is 20. Later, an additional 20 mice/dose are tested and the results are pooled with the original data to yield N=20-40 mice/dose.

SMILES	% MICE BLOCKED (nalbuphine HCl 2.93 + flurbiprofen 0 mg/kg) [%]	% MICE BLOCKED (nalbuphine HCl 5.85 + flurbiprofen 0 mg/kg) [%]	% MICE BLOCKED (nalbuphine HCl 11.7 + flurbiprofen 0 mg/kg) [%]	% MICE BLOCKED (nalbuphine HCl 23.4 + flurbiprofen 0 mg/kg) [%]	% MICE BLOCKED (nalbuphine HCl 46.8 + flurbiprofen 0 mg/kg) [%]	ED50 at 20 Min. (95% Confidence Limits), Nalbuphine HCl (nalbuphine HCl dose (alone or as component of the combination), N = 20-40 mice/dose) [mg/kg]	ED50 at 20 Min. (95% Confidence Limits), Flurbiprofen (flurbiprofen dose (alone or as component of the combination), N = 20-40 mice/dose) [mg/kg]	% MICE BLOCKED (nalbuphine HCl 0 + flurbiprofen 0.4 mg/kg) [%]	% MICE BLOCKED (nalbuphine HCl 0 + flurbiprofen 0.8 mg/kg) [%]	% MICE BLOCKED (nalbuphine HCl 0 + flurbiprofen 1.6 mg/kg) [%]	% MICE BLOCKED (nalbuphine HCl 0 + flurbiprofen 3.2 mg/kg) [%]
Oc1ccc2c3c1O[C@H]1[C@@H](O)CC[C@@]4(O)[C@@H](C2)N(CC2CCC2)CC[C@]314 [Nalbuphine Only (1:0), (-)-17-(cyclobutylmethyl)-4,5α-epoxymorphinan-3,6α,14-triol]	12.5	22.5	45.0	67.5	80.0	16.5					
CC(C(=O)O)c1ccc(-c2ccccc2)c(F)c1 (stereo not drawn) [Flurbiprofen Only (0:1), 2-fluoro-α-methyl[1,1'-biphenyl]-4-acetic acid]							1.56	5.0	32.5	45.0	87.5
